We go through eight molecules from PubChem BioAssay (NCI).

Among the test systems are BT-549 breast; COLO 205 colon; DU-145 prostate; HOP-62 NSCLC; HS 578T breast; MALME-3M melanoma; NCI-H460 lung; OVCAR-4 ovarian; SF-268 CNS; SK-MEL-5 melanoma.
Assay in all cases: NCI-60 cell line screen, 48 h

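Cultured in 96-well plates, cells were exposed to test compound for 48 hours across five concentrations. The concentration for 50% growth inhibition is given as GI50. TGI: concentration producing complete growth inhibition.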

In the case of `Cc1cnc(-c2ccc(-c3ccc(NC(=O)Nc4cccc(C(F)(F)F)c4)cc3F)c3c2C(=O)NC3)[nH]1`, the GI50 with BT-549 breast is 10.8 µM; with COLO 205 colon it was 0.0469 µM; with DU-145 prostate it was 11.5 µM; in the assay on HOP-62 NSCLC, 3.55 µM; in the assay on HS 578T breast, 2.46 µM; in the assay on MALME-3M melanoma, 1.47 µM. Further, the GI50 was 0.304 µM with NCI-H460 lung, 8.96 µM with OVCAR-4 ovarian, 11.4 µM with SF-268 CNS and 23.6 µM with SK-MEL-5 melanoma. Besides, the TGI with BT-549 breast was 49.1 µM; with COLO 205 colon, 20.2 µM; with DU-145 prostate, 35.6 µM; in the assay with HOP-62 NSCLC, over 50 µM; in the assay with HS 578T breast it was 35.4 µM; in the assay on MALME-3M melanoma, 23.1 µM. In addition, the TGI in the assay on NCI-H460 lung was 26.8 µM; with OVCAR-4 ovarian it was 23.8 µM; in the assay with SF-268 CNS it was over 48.1 µM; in the assay on SK-MEL-5 melanoma, over 65.6 µM.

`Cc1cc2oc(=O)cc(OC/C=C3/CCC(=O)O3)c2cc1C`: the GI50 with BT-549 breast was 1.93 µM; in the assay with COLO 205 colon, 2.19 µM; with DU-145 prostate, 2.67 µM; in the assay on HOP-62 NSCLC, 12.1 µM; in the assay with HS 578T breast, 4.76 µM; in the assay with MALME-3M melanoma, 2.39 µM. Also, the GI50 is 6.6 µM in the assay with NCI-H460 lung, 2.56 µM in the assay with OVCAR-4 ovarian, 6.46 µM with SF-268 CNS and 12.4 µM in the assay on SK-MEL-5 melanoma. The TGI amounted to 6.73 µM in the assay on BT-549 breast; 10.4 µM in the assay on COLO 205 colon; 12.4 µM in the assay on DU-145 prostate; 26.4 µM with HOP-62 NSCLC; 43.7 µM in the assay with HS 578T breast; 7.62 µM with MALME-3M melanoma. The TGI worked out at 32.5 µM in the assay with NCI-H460 lung, 13.7 µM with OVCAR-4 ovarian, 40.1 µM in the assay with SF-268 CNS and 26.3 µM with SK-MEL-5 melanoma.

As for `Fc1ccc(-c2c(-c3ccncc3)[nH]c3cccnc23)cc1`, the GI50 in the assay with BT-549 breast is over 25 µM; in the assay on COLO 205 colon, 18.6 µM; with DU-145 prostate, over 22.7 µM; in the assay on HOP-62 NSCLC, over 25 µM; with HS 578T breast, over 25 µM; in the assay on MALME-3M melanoma, over 21.9 µM. Moreover, the GI50 is 18.3 µM in the assay on NCI-H460 lung, over 25 µM in the assay with OVCAR-4 ovarian, over 25 µM with SF-268 CNS and 24.3 µM in the assay with SK-MEL-5 melanoma. In addition, the TGI in the assay on BT-549 breast, with COLO 205 colon, with DU-145 prostate, in the assay with HOP-62 NSCLC, in the assay with HS 578T breast and in the assay with MALME-3M melanoma was over 25 µM throughout. Also, the TGI with NCI-H460 lung, with OVCAR-4 ovarian, with SF-268 CNS and with SK-MEL-5 melanoma was over 25 µM throughout.

With `COc1ccc2c(c1)C(=O)/C(=C/c1cccc(OCC(=O)c3ccc([N+](=O)[O-])cc3)c1)CO2`, the GI50 in the assay with BT-549 breast was 1.91 µM; in the assay on COLO 205 colon, 2.74 µM; in the assay with DU-145 prostate, 2.73 µM; with HOP-62 NSCLC, 2.13 µM; in the assay on HS 578T breast, 2.73 µM; in the assay with MALME-3M melanoma it was 2.91 µM. In addition, the GI50 with NCI-H460 lung was 3.2 µM; with OVCAR-4 ovarian, 4.36 µM; with SF-268 CNS, 2.7 µM; with SK-MEL-5 melanoma, 2.79 µM. Also, the TGI in the assay with BT-549 breast came out at 4.85 µM; in the assay with COLO 205 colon, 6.33 µM; with DU-145 prostate it was 7.14 µM; in the assay with HOP-62 NSCLC, 5.35 µM; with HS 578T breast, 12.2 µM; in the assay on MALME-3M melanoma, 10.9 µM. Further, the TGI worked out at 11.6 µM with NCI-H460 lung, 17.2 µM in the assay with OVCAR-4 ovarian, 7.74 µM in the assay on SF-268 CNS and 8.05 µM with SK-MEL-5 melanoma.

Consider `O=[N+]([O-])c1cc(C(F)(F)F)cc2n[se]nc12`, for which the TGI was found to be 7.52 µM with BT-549 breast; 4.21 µM in the assay on COLO 205 colon; 6.66 µM in the assay on DU-145 prostate; 29.8 µM in the assay on HOP-62 NSCLC; 75.6 µM with HS 578T breast; 3.57 µM in the assay on MALME-3M melanoma. Further, the TGI in the assay on NCI-H460 lung stood at 26.6 µM; in the assay on OVCAR-4 ovarian it was 3.84 µM; in the assay with SF-268 CNS it was 15.3 µM; with SK-MEL-5 melanoma, 8.02 µM.

On to `COc1ccc(-c2nsc3c2NC(=O)CC3c2cccc(F)c2)cc1` (stereo not given), for which the GI50 in the assay with BT-549 breast was 7.77 µM; in the assay with COLO 205 colon, 2.95 µM; in the assay with DU-145 prostate it was 5.29 µM; in the assay on HOP-62 NSCLC, 8.79 µM; with HS 578T breast it was 3.95 µM; with MALME-3M melanoma it was 6.08 µM. For the same molecule, the GI50 is 3.63 µM with NCI-H460 lung, 50.2 µM in the assay on OVCAR-4 ovarian, 6.86 µM with SF-268 CNS and 2.81 µM with SK-MEL-5 melanoma. Besides, the TGI with BT-549 breast, with COLO 205 colon, in the assay with DU-145 prostate, in the assay with HOP-62 NSCLC, with HS 578T breast and with MALME-3M melanoma was over 100 µM in each case. Also, the TGI in the assay with NCI-H460 lung, in the assay on OVCAR-4 ovarian, in the assay with SF-268 CNS and with SK-MEL-5 melanoma was over 100 µM each time.

In the case of `O=c1oc2ccc(I)cc2c(=O)n1-c1ccc(I)cc1F`, the GI50 in the assay on BT-549 breast was 0.403 µM; with COLO 205 colon it was 4.88 µM; in the assay with DU-145 prostate it was 0.684 µM; with HOP-62 NSCLC it was 2.36 µM; in the assay with HS 578T breast it was 0.324 µM; in the assay on MALME-3M melanoma, 0.36 µM. Besides, the GI50 in the assay on NCI-H460 lung is 0.429 µM; in the assay with OVCAR-4 ovarian it was 0.349 µM; in the assay with SF-268 CNS, 0.511 µM; in the assay with SK-MEL-5 melanoma, 0.258 µM. Moreover, the TGI with BT-549 breast stood at 2.02 µM; with COLO 205 colon, 17.8 µM; in the assay with DU-145 prostate, 17.9 µM; with HOP-62 NSCLC it was 9.46 µM; in the assay on HS 578T breast, 4.78 µM; with MALME-3M melanoma, 2.54 µM. The TGI with NCI-H460 lung was found to be 10.3 µM; with OVCAR-4 ovarian, 18.4 µM; with SF-268 CNS, 7.64 µM; in the assay with SK-MEL-5 melanoma it was 0.747 µM.

As to `CN(C)C[C@@H]1CCn2cc(c3ccccc32)C2=C(C(=O)NC2=O)c2cn(c3ccccc23)CCO1`, the GI50 was 1.41 µM with BT-549 breast; 1.03 µM in the assay with COLO 205 colon; 2.75 µM in the assay on DU-145 prostate; 2.54 µM in the assay with HOP-62 NSCLC; 1.76 µM in the assay on HS 578T breast; 1.17 µM in the assay with MALME-3M melanoma. Further, the GI50 with NCI-H460 lung is 1.48 µM; with OVCAR-4 ovarian, 2.58 µM; in the assay with SF-268 CNS, 4.1 µM; in the assay on SK-MEL-5 melanoma, 1.39 µM. Also, the TGI in the assay on BT-549 breast is 9.57 µM; in the assay with COLO 205 colon, over 10 µM; in the assay with DU-145 prostate, over 10 µM; in the assay on HOP-62 NSCLC, over 10 µM; in the assay on HS 578T breast, 8.88 µM; with MALME-3M melanoma it was 5.01 µM. For the same molecule, the TGI in the assay with NCI-H460 lung is 5.73 µM; in the assay on OVCAR-4 ovarian it was over 10 µM; in the assay with SF-268 CNS it was over 10 µM; with SK-MEL-5 melanoma it was 7.11 µM.
